Among the data in patent US20240208968A1, “ALPHA V BETA 6 AND ALPHA V BETA 1 INTEGRIN INHIBITORS AND USES THEREOF” (DiCE Molecules SV, Inc., priority 2021, published 2024) are IC50 values, retold here.

For one experiment, the target named is αvβ1 (Homo sapiens, UniProt P05556+P06756). The experiment can be described thus: Solid Phase Integrin αvβ1 Assay. Type of experiment: binding. In a few lines: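 Wells coated with 1 µg/mL recombinant TGFb1-LAP and blocked with 2% BSA/TBST, 1 mM MnCl2; αvβ1 (added at 0.2 µg/mL) and compound incubated 90 min at room temperature. Bound integrin detected by streptavidin-HRP (20 min) and TMB after Mn-containing washes; IC50 by four-parameter logistic fit.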
Chain of αvβ1 (P06756 31-992 limits assumed): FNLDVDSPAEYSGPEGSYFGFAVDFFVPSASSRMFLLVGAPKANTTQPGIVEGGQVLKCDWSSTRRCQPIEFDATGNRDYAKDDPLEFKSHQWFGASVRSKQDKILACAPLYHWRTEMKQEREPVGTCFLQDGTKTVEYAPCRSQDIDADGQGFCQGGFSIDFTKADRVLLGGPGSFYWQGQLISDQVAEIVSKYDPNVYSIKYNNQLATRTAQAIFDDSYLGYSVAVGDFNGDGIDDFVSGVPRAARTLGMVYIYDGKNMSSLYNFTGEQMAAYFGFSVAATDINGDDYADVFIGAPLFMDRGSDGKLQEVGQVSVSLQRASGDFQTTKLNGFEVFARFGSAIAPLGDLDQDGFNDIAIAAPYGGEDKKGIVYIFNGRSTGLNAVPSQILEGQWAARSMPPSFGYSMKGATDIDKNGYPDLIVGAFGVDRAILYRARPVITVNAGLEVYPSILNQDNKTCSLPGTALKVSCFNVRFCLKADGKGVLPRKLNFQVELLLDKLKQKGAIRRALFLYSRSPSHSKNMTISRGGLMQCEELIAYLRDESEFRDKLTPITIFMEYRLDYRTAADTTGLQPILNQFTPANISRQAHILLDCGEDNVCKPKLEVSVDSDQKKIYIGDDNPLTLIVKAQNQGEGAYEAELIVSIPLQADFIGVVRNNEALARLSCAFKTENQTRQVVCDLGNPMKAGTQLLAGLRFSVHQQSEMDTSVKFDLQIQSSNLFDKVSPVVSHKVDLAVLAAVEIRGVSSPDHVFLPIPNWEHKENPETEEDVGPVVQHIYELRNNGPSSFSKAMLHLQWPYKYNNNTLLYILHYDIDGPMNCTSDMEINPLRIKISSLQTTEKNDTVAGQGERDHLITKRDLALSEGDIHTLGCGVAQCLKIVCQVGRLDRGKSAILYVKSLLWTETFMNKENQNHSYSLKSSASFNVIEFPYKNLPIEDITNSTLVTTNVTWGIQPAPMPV
Chain of αvβ1 (P05556 21-728 limits assumed): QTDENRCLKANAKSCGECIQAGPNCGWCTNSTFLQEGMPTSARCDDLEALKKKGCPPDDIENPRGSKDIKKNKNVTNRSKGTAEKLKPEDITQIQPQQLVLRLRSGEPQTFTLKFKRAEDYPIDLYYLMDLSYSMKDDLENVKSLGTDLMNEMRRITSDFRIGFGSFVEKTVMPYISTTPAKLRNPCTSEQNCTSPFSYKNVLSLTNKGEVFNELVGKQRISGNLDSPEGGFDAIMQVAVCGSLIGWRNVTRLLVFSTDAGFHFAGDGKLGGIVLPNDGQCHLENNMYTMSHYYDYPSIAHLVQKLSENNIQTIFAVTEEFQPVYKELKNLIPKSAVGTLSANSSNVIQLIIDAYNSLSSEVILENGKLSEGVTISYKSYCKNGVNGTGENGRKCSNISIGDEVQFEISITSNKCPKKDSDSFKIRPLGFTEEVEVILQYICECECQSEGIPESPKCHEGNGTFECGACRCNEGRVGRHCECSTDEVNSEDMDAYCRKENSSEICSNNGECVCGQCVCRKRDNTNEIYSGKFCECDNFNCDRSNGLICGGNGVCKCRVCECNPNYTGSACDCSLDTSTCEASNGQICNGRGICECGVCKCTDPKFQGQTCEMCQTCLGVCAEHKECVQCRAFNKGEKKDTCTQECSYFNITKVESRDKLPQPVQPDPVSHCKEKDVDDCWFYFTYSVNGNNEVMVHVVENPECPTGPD

The next experiment concerns the target αvβ6 (Homo sapiens, UniProt P06756+P18564). The experiment can be described thus: Solid Phase Integrin αvβ6 Assay. It counts as binding. In outline: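 Plates coated with 1 μg/mL recombinant TGFb1-LAP; compounds and αvβ6 (0.2 μg/mL diluted stock) incubated 1 h at room temperature in 2% BSA/TBST with 1 mM MnCl2. Bound integrin detected with streptavidin-HRP and TMB; IC50 from four-parameter logistic fits.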

pIC50: −log10 of the molar value. Where a name gives a salt, the structure may show the parent alone. Some results are limits rather than exact numbers.

Chain of αvβ6 (P06756 31-992 limits assumed): as the sequence (P06756 31-992 limits assumed) above
Chain of αvβ6 (P18564 22-707 limits assumed): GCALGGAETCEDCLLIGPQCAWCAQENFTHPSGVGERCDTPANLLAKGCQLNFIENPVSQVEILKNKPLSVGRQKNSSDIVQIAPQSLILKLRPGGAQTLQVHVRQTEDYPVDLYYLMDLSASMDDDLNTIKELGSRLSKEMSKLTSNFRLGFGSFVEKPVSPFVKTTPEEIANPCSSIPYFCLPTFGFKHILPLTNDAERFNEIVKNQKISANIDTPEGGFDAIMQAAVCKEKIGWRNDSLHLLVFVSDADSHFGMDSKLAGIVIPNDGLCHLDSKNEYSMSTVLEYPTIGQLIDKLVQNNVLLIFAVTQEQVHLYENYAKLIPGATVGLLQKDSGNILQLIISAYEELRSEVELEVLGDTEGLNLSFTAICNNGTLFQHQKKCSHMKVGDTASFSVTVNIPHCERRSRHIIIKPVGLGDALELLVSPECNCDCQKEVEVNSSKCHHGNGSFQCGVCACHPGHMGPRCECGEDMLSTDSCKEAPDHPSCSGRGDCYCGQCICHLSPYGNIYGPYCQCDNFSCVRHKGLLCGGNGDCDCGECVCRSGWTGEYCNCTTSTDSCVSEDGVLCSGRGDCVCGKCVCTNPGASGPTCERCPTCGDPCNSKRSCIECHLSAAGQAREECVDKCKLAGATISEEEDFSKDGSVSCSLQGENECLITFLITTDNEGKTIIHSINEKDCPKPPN

Broadly, the pIC50 is −log10 of the IC50, conventionally taken in molar units. Higher therefore signals a small IC50. In the case of `COc1ccc([C@H](CC(=O)O)NC(=O)[C@@H]2CCCN(CCCc3ccc4c(n3)NCCC4)C2)cn1` [Compound 221, (S)-3-(6-methoxypyridin-3-yl)-3-((R)-1-(3-(5,6,7,8-tetrahydro-1,8-naphthyridin-2-yl)propyl)piperidine-3-carboxamido)propanoic acid hydrochloride], the pIC50 on αvβ1 and on αvβ6 was greater than 7.00 throughout.

Regarding `O=C(O)[C@@](O)(CO[C@@H]1CCCN(CCCc2ccc3c(n2)NCCC3)C1)c1ccccc1` [Compound 453], the pIC50 on αvβ1 and at αvβ6 was less than 6.00 throughout.

In the case of `O=C(O)C[C@H](NC(=O)[C@@H]1CCCN(CCCc2ccc3c(n2)NCCC3)C1)c1cccc(Oc2ccccc2)c1` [Compound 209-A, 3-(3-phenoxyphenyl)-3-((R)-1-(3-(5,6,7,8-tetrahydro-1,8-naphthyridin-2-yl)propyl)piperidine-3-carboxamido)propanoic acid], the pIC50 on αvβ1 and against αvβ6 was greater than 7.00 throughout.

In the case of `O=C(O)[C@](O)(CO[C@@H]1CCCN(CCCCc2ccc3c(n2)NCCC3)C1)c1ccccc1` [Compound 455], the pIC50 against αvβ1 and against αvβ6 was less than 6.00 throughout.

With `O=C(NC[C@H](Nc1ncnc2ccsc12)C(=O)O)[C@@H]1CCCN(CCCc2ccc3c(n2)NCCC3)C1` [Compound 276, (2S)-3-[[(3R)-1-[3-(5,6,7,8-tetrahydro-1,8-naphthyridin-2-yl)propyl]piperidine-3-carbonyl]amino]-2-(thieno[3,2-d]pyrimidin-4-ylamino)propanoic acid], the pIC50 against αvβ1 and against αvβ6 was greater than 7.00 each time.

Regarding `Cc1csc2ncnc(N[C@@H](CNC(=O)[C@@H]3CCCN(CCCc4ccc5c(n4)NCCC5)C3)C(=O)O)c12` [Compound 280, (S)-2-((5-methylthieno[2,3-d]pyrimidin-4-yl)amino)-3-((R)-1-(3-(5,6,7,8-tetrahydro-1,8-naphthyridin-2-yl)propyl)piperidine-3-carboxamido)propanoic acid], the pIC50 at αvβ1 and on αvβ6 was greater than 7.00 throughout.

`CN(C[C@@H](CC(=O)O)c1ccccc1)[C@@H]1CCCN(CCCc2ccc3c(n2)NCCC3)C1` [Compound 296, (S)-4-(methyl((R)-1-(3-(5,6,7,8-tetrahydro-1,8-naphthyridin-2-yl)propyl)piperidin-3-yl)amino)-3-phenylbutanoic acid]: the pIC50 against αvβ1 was 6.00 to 7.00; against αvβ6 it was less than 6.00.

On to `O=C(NC[C@@H](C(=O)O)c1cccc(Oc2ccccc2)c1)[C@@H]1CCCN(CCCc2ccc3c(n2)NCCC3)C1` [Compound 251-A], for which the negative logarithm of the IC50 (pIC50) at αvβ1 and against αvβ6 was 6.00 to 7.00 throughout.

Consider `O=C(CC[C@@H](NC(=O)[C@H]1CCCN1S(=O)(=O)c1ccccc1)C(=O)O)N[C@H]1CCN(C(=O)CCCc2ccc3c(n2)NCCC3)C1` [Compound 440], for which the pIC50 is 6.00 to 7.00 against αvβ1 and less than 6.00 against αvβ6.

For the compound `O=C(NC[C@@H](C(=O)O)c1cc(F)cc(-c2ccccc2)c1)[C@@H]1CCCN(CCCc2ccc3c(n2)NCCC3)C1` [Compound 307], the pIC50 against αvβ1 and on αvβ6 was greater than 7.00 throughout.

With `O=C(O)[C@H](CCO[C@@H]1CCCN(CCCc2ccc3c(n2)NCCC3)C1)Nc1ncnc2ccccc12` [Compound 334], the pIC50 on αvβ1 and against αvβ6 was greater than 7.00 throughout.

For `O=C(O)C[C@H](NC(=O)[C@@H]1CCCN(CCCc2ccc3c(n2)NCCC3)C1)c1cccc(C(F)(F)F)c1` (single isomer, unassigned) [Compound 203-A, hydrochloride], the values for the negative logarithm of the IC50 (pIC50) at αvβ1 and against αvβ6 were less than 6.00 and 6.00 to 7.00, respectively.

Turning to `O=C(N[C@@H](CNC(=O)[C@@H]1CCCN(CCCc2ccc3c(n2)NCCC3)C1)C(=O)O)C1CC2CCC1CC2` (stereo partly drawn) [Compound 285, (2S)-2-(bicyclo[22.2]octane-2-carboxamido)-3-((R)-1-(3-(5,6,7,8-tetrahydro-1,8-naphthyridin-2-yl)propyl)piperidine-3-carboxamido)propanoic acid], the negative logarithm of the IC50 (pIC50) at αvβ1 and against αvβ6 was greater than 7.00 throughout.

For the compound `CC1(C)CCN(c2cccc([C@@H](CNC(=O)[C@@H]3CCCN(CCCc4ccc5c(n4)NCCC5)C3)C(=O)O)c2)CC1` [Compound 601], the pIC50 at αvβ1 and at αvβ6 was greater than 7.00 each time.

Consider `O=C(NC[C@H](C(=O)O)c1cccc2cn([C@@H]3CCC(F)(F)C3)nc12)[C@@H]1CCCN(CCCc2ccc3c(n2)NCCC3)C1` [Compound 623], for which the pIC50 at αvβ1 and on αvβ6 was greater than 7.00 each time.

For `Cc1cc(C(F)(F)F)nn1-c1cccc([C@H](CO[C@@H]2CCCN(CCCc3ccc4c(n3)NCCC4)C2)CC(=O)O)c1` [Compound 577], the pIC50 at αvβ1 and against αvβ6 was greater than 7.00 throughout.

For `O=C(NC[C@H](C(=O)O)c1cc(F)cc(-c2cccc(F)c2)c1)[C@@H]1CCCN(CCCc2ccc3c(n2)NCCC3)C1` [Compound 629], the results for the negative-log IC50 (pIC50) against αvβ1 and against αvβ6 were less than 6.00 and 6.00 to 7.00, respectively.

Take `O=C(NC[C@@H](C(=O)O)c1ccc2ccccc2c1)[C@@H]1CCCN(CCCc2ccc3c(n2)NCCC3)C1` [Compound 249-B, 2-(naphthalen-2-yl)-3-((R)-1-(3-(5,6,7,8-tetrahydro-1,8-naphthyridin-2-yl)propyl)piperidine-3-carboxamido)propanoic acid]: the negative-log IC50 (pIC50) at αvβ1 and on αvβ6 was greater than 7.00 each time.

Regarding `O=C(O)C[C@H](NC(=O)[C@@H]1CCCN(CCCc2ccc3c(n2)NCCC3)C1)c1cccc(C2CCCC2)c1` [Compound 231, (S)-3-(3-cyclopentylphenyl)-3-((R)-1-(3-(5,6,7,8-tetrahydro-1,8-naphthyridin-2-yl)propyl)piperidine-3-carboxamido)propanoic acid hydrochloride], the negative-log IC50 (pIC50) at αvβ1 and against αvβ6 was greater than 7.00 in each case.

As for `O=C(N[C@@H](CNC(=O)[C@@H]1CCCN(CCCc2ccc3c(n2)NCCC3)C1)C(=O)O)c1cccc(Cl)c1Cl` [Compound 365], the negative logarithm of the IC50 (pIC50) against αvβ1 and against αvβ6 was greater than 7.00 each time.

For `O=C(O)C[C@@H](CC(=O)N[C@@H]1CCN(C(=O)CCCc2ccc3c(n2)NCCC3)C1)c1ccccc1` [Compound 417], the pIC50 at αvβ1 is greater than 7.00; against αvβ6 it was 6.00 to 7.00.

As to `O=C(O)[C@H](CO[C@@H]1CCCN(Cc2ccc3c(n2)NCCC3)C1)NC(=O)C12CCC(CC1)CC2` [Compound 404], the pIC50 against αvβ1 and on αvβ6 was less than 6.00 each time.

As for `O=C(NC[C@H](NS(=O)(=O)C1CCCCC1)C(=O)O)[C@@H]1CCCN(CCCc2ccc3c(n2)NCCC3)C1` [Compound 274, (S)-2-(cyclohexanesulfonamido)-3-((R)-1-(3-(5,6,7,8-tetrahydro-1,8-naphthyridin-2-yl)propyl)piperidine-3-carboxamido)propanoic acid hydrochloride], the negative logarithm of the IC50 (pIC50) at αvβ1 and on αvβ6 was greater than 7.00 each time.

For `O=C(N[C@@H](CNC(=O)[C@@H]1CCCN(CCCc2ccc3c(n2)NCCC3)C1)C(=O)O)c1ccc(F)c(Cl)c1` [Compound 367], the pIC50 against αvβ1 and at αvβ6 was greater than 7.00 in each case.

As for `CN(CC1(C)CCCCC1)[C@@H](CNC(=O)[C@@H]1CCCN(CCCc2ccc3c(n2)NCCC3)C1)C(=O)O` [Compound 527], the negative logarithm of the IC50 (pIC50) on αvβ1 and against αvβ6 was 6.00 to 7.00 in each case.

Take `O=C(NC[C@H](C(=O)O)c1ccc(C2CC2)cc1)[C@@H]1CCCN(CCCc2ccc3c(n2)NCCC3)C1` [Compound 259-A, 2-(4-cyclopropylphenyl)-3-((R)-1-(3-(5,6,7,8-tetrahydro-1,8-naphthyridin-2-yl)propyl)piperidine-3-carboxamido)propanoic acid]: the negative-log IC50 (pIC50) on αvβ1 and on αvβ6 was greater than 7.00 each time.

For `CC1(C)CN(c2cccc([C@H](CC(=O)O)NC(=O)[C@@H]3CCCN(CCCc4ccc5c(n4)NCCC5)C3)c2)CCO1` [Compound 234, (S)-3-(3-(2,2-dimethylmorpholino)phenyl)-3-((R)-1-(3-(5,6,7,8-tetrahydro-1,8-naphthyridin-2-yl)propyl)piperidine-3-carboxamido)propanoic acid], the negative-log IC50 (pIC50) against αvβ1 and against αvβ6 was greater than 7.00 in each case.

Turning to `O=C(O)C[C@@H](NC(=O)[C@@H]1CCCN(CCCc2ccc3c(n2)NCCC3)C1)c1cc(F)cc(C(F)(F)F)c1` [Compound 208-A, 3-(3-fluoro-5-(trifluoromethyl)phenyl)-3-((R)-1-(3-(5,6,7,8-tetrahydro-1,8-naphthyridin-2-yl)propyl)piperidine-3-carboxamido)propanoic acid], the pIC50 against αvβ1 and at αvβ6 was greater than 7.00 each time.

For the compound `O=C(O)C(CNC(=O)[C@@H]1CCCN(CCCc2ccc3c(n2)NCCC3)C1)c1ccc(C2CC2)cc1` (single isomer, unassigned) [Compound 259-B], the pIC50 at αvβ1 was greater than 7.00; against αvβ6, 6.00 to 7.00.

With `C[C@@H]1CN(c2cccc([C@@H](CNC(=O)[C@@H]3CCCN(CCCc4ccc5c(n4)NCCC5)C3)C(=O)O)c2)C[C@H](C)O1` [Compound 604], the negative logarithm of the IC50 (pIC50) at αvβ1 and against αvβ6 was greater than 7.00 each time.

As for `O=C(O)C[C@@H](CO[C@@H]1CCCN(CCCc2ccc3c(n2)NCCC3)C1)c1cccc(-n2cccn2)c1` [Compound 515], the negative logarithm of the IC50 (pIC50) on αvβ1 was 6.00 to 7.00; at αvβ6, greater than 7.00.

For `O=C(O)[C@@H](c1ccccc1)[C@@H](O)CO[C@@H]1CCCN(CCCc2ccc3c(n2)NCCC3)C1` [Compound 608], the negative logarithm of the IC50 (pIC50) against αvβ1 and against αvβ6 was less than 6.00 in each case.

Consider `O=C(N[C@H](CCO[C@@H]1CCCN(CCCc2ccc3c(n2)NCCC3)C1)C(=O)O)c1c(F)cc(N2CCOCC2)cc1F` [Compound 512], for which the negative logarithm of the IC50 (pIC50) at αvβ1 and against αvβ6 was less than 6.00 throughout.

Consider `O=C(O)[C@H](CCO[C@@H]1CCCN(CCCc2ccc3c(n2)NCCC3)C1)Nc1ncnc2cc(F)c(F)cc12` [Compound 474], for which the figures for the pIC50 on αvβ1 and on αvβ6 were 6.00 to 7.00 and greater than 7.00, respectively.
